Assay results reported in PMC11711049 (Cancer Science, 2024).

Tested on: patients with advanced gastric cancer and cholangiocarcinoma
Assay: Safety assessments
Assay type: in vivo, human
Details: 140 mg once daily

In the case of `CNC(=O)n1ccc2cc(Oc3ccnc(NC(=O)c4ccc(C5CCN(CCO)CC5)cc4)c3)c(OCCOC)cc21` [Tasurgratinib], the “SAEs considered related to the study drug” value is reported as “none and No treatment‐related SAEs”, the “dose reductions attributed to AST increased” value is reported as 1 n and the “dose reductions attributed to PPE syndrome” value is reported as 2 n. The “dose reductions attributed to decreased appetite” value was 1 n, the “dose reductions attributed to paronychia” value was 2 n and the “dose reductions attributed to stomatitis” value was 1 n. For the same compound, the “drug‐related deaths” value was “no drug‐related deaths”, the “severity of all hyperphosphatemia events” value was “grade 1 or 2” and the “ALT increased, TEAEs All grades” value (N = 16) was 3 (18.8) n (%). The “ALT increased, TEAEs Grade ≥3” value (N = 16) was 1 (6.3) n (%), the “ALT increased, TRAEs All grades” value (N = 16) was 2 (12.5) n (%) and the “ALT increased, TRAEs Grade ≥3” value (N = 16) was 0 (0.0) n (%). For the same compound, the “AST increased, TEAEs All grades” value (N = 16) was 4 (25.0) n (%), the “AST increased, TEAEs Grade ≥3” value (N = 16) was 2 (12.5) n (%) and the “AST increased, TRAEs All grades” value (N = 16) was 3 (18.8) n (%). The “AST increased, TRAEs Grade ≥3” value (N = 16) was 1 (6.3) n (%), the “Abdominal distension, TEAEs All grades” value (N = 16) was 4 (25.0) n (%) and the “Abdominal distension, TEAEs Grade ≥3” value (N = 16) was 1 (6.3) n (%). For the same compound, the “Abdominal distension, TRAEs All grades” value (N = 16) was 0 (0.0) n (%), the “Abdominal distension, TRAEs Grade ≥3” value (N = 16) was 0 (0.0) n (%) and the “Abdominal pain, TEAEs All grades” value (N = 16) was 2 (12.5) n (%). The “Abdominal pain, TEAEs Grade ≥3” value (N = 16) was 0 (0.0) n (%), the “Abdominal pain, TRAEs All grades” value (N = 16) was 0 (0.0) n (%) and the “Abdominal pain, TRAEs Grade ≥3” value (N = 16) was 0 (0.0) n (%). The “All AEs, TEAEs All grades” value (N = 16) was 16 (100.0) n (%), the “All AEs, TEAEs Grade ≥3” value (N = 16) was 11 (68.8) n (%) and the “All AEs, TRAEs All grades” value (N = 16) was 16 (100.0) n (%). The “All AEs, TRAEs Grade ≥3” value (N = 16) was 2 (12.5) n (%), the “Anemia, TEAEs All grades” value (N = 16) was 4 (25.0) n (%) and the “Anemia, TEAEs Grade ≥3” value (N = 16) was 2 (12.5) n (%). The “Anemia, TRAEs All grades” value (N = 16) was 1 (6.3) n (%), the “Anemia, TRAEs Grade ≥3” value (N = 16) was 0 (0.0) n (%) and the “Blood alkaline phosphatase increased, TEAEs All grades” value (N = 16) was 3 (18.8) n (%). For the same compound, the “Blood alkaline phosphatase increased, TEAEs Grade ≥3” value (N = 16) was 2 (12.5) n (%), the “Blood alkaline phosphatase increased, TRAEs All grades” value (N = 16) was 1 (6.3) n (%) and the “Blood alkaline phosphatase increased, TRAEs Grade ≥3” value (N = 16) was 0 (0.0) n (%). The “Blood creatinine increased, TEAEs All grades” value (N = 16) was 5 (31.3) n (%), the “Blood creatinine increased, TEAEs Grade ≥3” value (N = 16) was 0 (0.0) n (%) and the “Blood creatinine increased, TRAEs All grades” value (N = 16) was 3 (18.8) n (%). For the same compound, the “Blood creatinine increased, TRAEs Grade ≥3” value (N = 16) was 0 (0.0) n (%), the “Cancer pain, TEAEs All grades” value (N = 16) was 2 (12.5) n (%) and the “Cancer pain, TEAEs Grade ≥3” value (N = 16) was 0 (0.0) n (%). The “Cancer pain, TRAEs All grades” value (N = 16) was 0 (0.0) n (%), the “Cancer pain, TRAEs Grade ≥3” value (N = 16) was 0 (0.0) n (%) and the “Constipation, TEAEs All grades” value (N = 16) was 3 (18.8) n (%). For the same compound, the “Constipation, TEAEs Grade ≥3” value (N = 16) was 0 (0.0) n (%), the “Constipation, TRAEs All grades” value (N = 16) was 1 (6.3) n (%) and the “Constipation, TRAEs Grade ≥3” value (N = 16) was 0 (0.0) n (%). For the same compound, the “Decreased appetite, TEAEs All grades” value (N = 16) was 7 (43.8) n (%), the “Decreased appetite, TEAEs Grade ≥3” value (N = 16) was 2 (12.5) n (%) and the “Decreased appetite, TRAEs All grades” value (N = 16) was 2 (12.5) n (%). For the same compound, the “Decreased appetite, TRAEs Grade ≥3” value (N = 16) was 0 (0.0) n (%), the “Diarrhea, TEAEs All grades” value (N = 16) was 6 (37.5) n (%) and the “Diarrhea, TEAEs Grade ≥3” value (N = 16) was 1 (6.3) n (%). The “Diarrhea, TRAEs All grades” value (N = 16) was 4 (25.0) n (%), the “Diarrhea, TRAEs Grade ≥3” value (N = 16) was 0 (0.0) n (%) and the “Dry eye, TEAEs All grades” value (N = 16) was 2 (12.5) n (%). The “Dry eye, TEAEs Grade ≥3” value (N = 16) was 0 (0.0) n (%), the “Dry eye, TRAEs All grades” value (N = 16) was 1 (6.3) n (%) and the “Dry eye, TRAEs Grade ≥3” value (N = 16) was 0 (0.0) n (%). For the same compound, the “Dry mouth, TEAEs All grades” value (N = 16) was 3 (18.8) n (%), the “Dry mouth, TEAEs Grade ≥3” value (N = 16) was 0 (0.0) n (%) and the “Dry mouth, TRAEs All grades” value (N = 16) was 3 (18.8) n (%). The “Dry mouth, TRAEs Grade ≥3” value (N = 16) was 0 (0.0) n (%), the “Dry skin, TEAEs All grades” value (N = 16) was 3 (18.8) n (%) and the “Dry skin, TEAEs Grade ≥3” value (N = 16) was 0 (0.0) n (%). For the same compound, the “Dry skin, TRAEs All grades” value (N = 16) was 3 (18.8) n (%), the “Dry skin, TRAEs Grade ≥3” value (N = 16) was 0 (0.0) n (%) and the “Dysgeusia, TEAEs All grades” value (N = 16) was 6 (37.5) n (%). The “Dysgeusia, TEAEs Grade ≥3” value (N = 16) was 0 (0.0) n (%), the “Dysgeusia, TRAEs All grades” value (N = 16) was 5 (31.3) n (%) and the “Dysgeusia, TRAEs Grade ≥3” value (N = 16) was 0 (0.0) n (%). The “Epistaxis, TEAEs All grades” value (N = 16) was 2 (12.5) n (%), the “Epistaxis, TEAEs Grade ≥3” value (N = 16) was 0 (0.0) n (%) and the “Epistaxis, TRAEs All grades” value (N = 16) was 1 (6.3) n (%). For the same compound, the “Epistaxis, TRAEs Grade ≥3” value (N = 16) was 0 (0.0) n (%), the “Headache, TEAEs All grades” value (N = 16) was 2 (12.5) n (%) and the “Headache, TEAEs Grade ≥3” value (N = 16) was 1 (6.3) n (%). For the same compound, the “Headache, TRAEs All grades” value (N = 16) was 0 (0.0) n (%), the “Headache, TRAEs Grade ≥3” value (N = 16) was 0 (0.0) n (%) and the “Hyperphosphatemia, TEAEs All grades” value (N = 16) was 16 (100.0) n (%). For the same compound, the “Hyperphosphatemia, TEAEs Grade ≥3” value (N = 16) was 0 (0.0) n (%), the “Hyperphosphatemia, TRAEs All grades” value (N = 16) was 16 (100.0) n (%) and the “Hyperphosphatemia, TRAEs Grade ≥3” value (N = 16) was 0 (0.0) n (%). The “Hypoalbuminemia, TEAEs All grades” value (N = 16) was 3 (18.8) n (%), the “Hypoalbuminemia, TEAEs Grade ≥3” value (N = 16) was 1 (6.3) n (%) and the “Hypoalbuminemia, TRAEs All grades” value (N = 16) was 0 (0.0) n (%). For the same compound, the “Hypoalbuminemia, TRAEs Grade ≥3” value (N = 16) was 0 (0.0) n (%), the “Insomnia, TEAEs All grades” value (N = 16) was 2 (12.5) n (%) and the “Insomnia, TEAEs Grade ≥3” value (N = 16) was 0 (0.0) n (%). For the same compound, the “Insomnia, TRAEs All grades” value (N = 16) was 0 (0.0) n (%), the “Insomnia, TRAEs Grade ≥3” value (N = 16) was 0 (0.0) n (%) and the “Lipase increased, TEAEs All grades” value (N = 16) was 2 (12.5) n (%). The “Lipase increased, TEAEs Grade ≥3” value (N = 16) was 2 (12.5) n (%), the “Lipase increased, TRAEs All grades” value (N = 16) was 1 (6.3) n (%) and the “Lipase increased, TRAEs Grade ≥3” value (N = 16) was 1 (6.3) n (%).
